The results in this text go back to ChEMBL document CHEMBL1137686, “Synthesis and anticonvulsant activity of new N-[(4-arylpiperazin-1-yl)-alkyl] derivatives of 3-phenyl-pyrrolidine-2,5-dione” (Eur J Med Chem, 2009).

Activity calls are given as the source filed them. The calls are words filed in the database; no cut-off is given here.

Data set [1] has as its system Rattus norvegicus. Briefly: Anticonvulsant activity in po dosed rat assessed as inhibition of subcutaneous pentylenetetrazole-induced seizures. Format: functional.
The subject of data set [2] is Mus musculus. Briefly: Anticonvulsant activity in CF1 albino mouse assessed as protection against maximal electroshock-induced seizures at 30 mg/kg, po after 1 hr. Format: functional.
For data set [3], the species on record is Rattus norvegicus. Kind of data set: Protective index, ratio of TD50 for neurotoxicity in rat to ED50 for inhibition of maximal electroshock-induced seizures in rat. Format: functional. (In general: Protection in the maximal electroshock model is a classic sign of anticonvulsant action.)
Data set [4] relates to Rattus norvegicus. Kind of data set: Anticonvulsant activity against maximal electroshock-induced seizures in po dosed rat assessed as time to peak effect. It counts as functional.
Data set [5] has as its system Mus musculus. Kind of data set: Anticonvulsant activity in CF1 albino mouse assessed as protection against maximal electroshock-induced seizures at 30 mg/kg, po after 0.5 hrs. Format: functional.
For data set [6], the system named is Mus musculus. Kind of data set: Neurotoxicity in CF1 albino mouse assessed as motor impairment at 30 mg/kg, po after 0.25 hrs by rotarod test. It counts as toxicity, organism-based. On the set-up: dose 30 mg/kg, route oral. The following applies: in vivo. On the technique in general: In the rotarod test animals must keep their balance on a rotating rod.
Data set [7] has as its system Mus musculus. Kind of data set: Neurotoxicity in ip dosed CF1 albino mouse assessed as ability to maintain equilibrium for 1 min on […] after 0.5 hrs by rotarod test. It counts as toxicity, organism-based. As to conditions: in vivo.
The nature of data set [8]: Neurotoxicity in po dosed rat assessed as ability to maintain equilibrium for 1 min on […] by rotarod test. Format: toxicity, organism-based. The following applies: in vivo.
Data set [9] deals with Mus musculus. Kind of data set: Anticonvulsant activity in CF1 albino mouse assessed as protection against maximal electroshock-induced seizures at 30 mg/kg, po after 0.25 hrs. It counts as functional.
Data set [10] has as its system Rattus norvegicus. Briefly: Anticonvulsant activity in po dosed rat assessed as inhibition of maximal electroshock-induced seizures. It counts as functional.
The subject of data set [11] is Mus musculus. Briefly: Anticonvulsant activity in CF1 albino mouse assessed as inhibition of maximal electroshock-induced seizures at 300 mg/kg, ip after 0.5 hrs. It counts as functional, organism-based. On the set-up: dose 300 mg/kg.
The test system of data set [12] is Mus musculus. Briefly: Neurotoxicity in CF1 albino mouse assessed as motor impairment at 30 mg/kg, po after 1 hr by rotarod test. On the set-up: dose 30 mg/kg, route oral. Format: toxicity, organism-based. As to conditions: in vivo.
Data set [13] has as its system Mus musculus. Briefly: Anticonvulsant activity in CF1 albino mouse assessed as protection against maximal electroshock-induced seizures at 30 mg/kg, po after 2 hrs. Format: functional.
Data set [14] relates to Mus musculus. Kind of data set: Anticonvulsant activity in CF1 albino mouse assessed as protection against maximal electroshock-induced seizures at 30 mg/kg, po after 4 hrs. Format: functional.
The subject of data set [15] is Mus musculus. Briefly: Neurotoxicity in CF1 albino mouse assessed as motor impairment at 30 mg/kg, po after 0.5 hrs by rotarod test. On the set-up: dose 30 mg/kg, route oral. As to conditions: in vivo. Format: toxicity, organism-based.
Data set [16] deals with Mus musculus. Kind of data set: Neurotoxicity in CF1 albino mouse assessed as ability to maintain equilibrium for 1 min on […] at 300 mg/kg, ip after 4 hrs by rotarod test. It counts as toxicity, organism-based. On the set-up: dose 300 mg/kg, route intraperitoneal. The following applies: in vivo.
For data set [17], the system named is Mus musculus. Kind of data set: Neurotoxicity in CF1 albino mouse assessed as motor impairment at 30 mg/kg, po after 2 hrs by rotarod test. It counts as toxicity, organism-based. The following applies: in vivo. On the set-up: dose 30 mg/kg, route oral.
For data set [18], the system named is Mus musculus. Kind of data set: Neurotoxicity in CF1 albino mouse assessed as motor impairment at 30 mg/kg, po after 4 hrs by rotarod test. It counts as toxicity, organism-based. On the set-up: dose 30 mg/kg, route oral. The following applies: in vivo.
Data set [19] concerns Mus musculus. Kind of data set: Anticonvulsant activity in ip dosed CF1 albino mouse assessed as inhibition of maximal electroshock-induced seizures after 4 hrs. Format: functional.
Data set [20] relates to Mus musculus. Kind of data set: Anticonvulsant activity in ip dosed mouse assessed as inhibition of maximal electroshock-induced seizures. Format: functional.
For data set [21], the system named is Mus musculus. Kind of data set: Neurotoxicity in CF1 albino mouse assessed as ability to grasp rotarod at 300 mg/kg, ip after 0.5 hrs by rotarod test. Format: toxicity, organism-based. On the set-up: dose 300 mg/kg, route intraperitoneal. The following applies: in vivo.
Data set [22] concerns Mus musculus. Kind of data set: Anticonvulsant activity in CF1 albino mouse assessed as inhibition of maximal electroshock-induced seizures at 300 mg/kg, ip after 4 hrs. Format: functional, organism-based. On the set-up: dose 300 mg/kg.
In data set [23] the test system is Mus musculus. Kind of data set: Neurotoxicity in CF1 albino mouse assessed as muscle spasm at 300 mg/kg, po after 0.5 hrs by rotarod test. Format: toxicity, organism-based, Muscle tissue. On the set-up: dose 300 mg/kg, route oral. As to conditions: in vivo.
Data set [24] is described as follows: Neurotoxicity in ip dosed CF1 albino mouse assessed as ability to maintain equilibrium for 1 min on […] by rotarod test. It counts as toxicity, organism-based. As to conditions: in vivo.
For data set [25], the system named is Mus musculus. Briefly: Anticonvulsant activity in ip dosed CF1 albino mouse assessed as inhibition of subcutaneous pentylenetetrazole-induced seizures. Format: functional.
The species entered for data set [26] is Mus musculus. Kind of data set: Protective index, ratio of TD50 for neurotoxicity in CF1 albino mouse to ED50 for inhibition of maximal electroshock-induced seizures in CF1 albino mouse. Format: functional.
The test system of data set [27] is Mus musculus. Briefly: Anticonvulsant activity in ip dosed CF1 albino mouse assessed as inhibition of maximal electroshock-induced seizures after 0.5 hrs. Format: functional.
The test system of data set [28] is Mus musculus. Kind of data set: Neurotoxicity in ip dosed CF1 albino mouse assessed as ability to maintain equilibrium for 1 min on […] after 4 hrs by rotarod test. It counts as toxicity, organism-based. The following applies: in vivo.
Data set [29] deals with Mus musculus. Briefly: Anticonvulsant activity against maximal electroshock-induced seizures in ip dosed CF1 albino mouse assessed as time to peak effect. It counts as functional.
Data set [30] deals with Mus musculus. Kind of data set: Anticonvulsant activity in ip dosed CF1 albino mouse assessed as inhibition of maximal electroshock-induced seizures. Format: functional.

Take `O=C1CC(c2ccccc2C(F)(F)F)C(=O)N1CN1CCN(c2ccccc2)CC1` (stereo not given): the ED50 (in general, the dose that gives a 50% effect, or the effect in half of the subjects) in [1] was more than 250 mg/kg; in data set [10], 20.8 mg/kg. For the same molecule, the Activity was 25% in [2]; “Non-toxic” in data set [6]; 300 mg/kg in data set [7]; 25% in [9]; “Non-toxic” in data set [12]; 50% in [13]. The Activity in data set [14] was 75%; in [15], “Non-toxic”; in data set [16], “Non-toxic”; in data set [17], “Non-toxic”; in data set [18] it was “Non-toxic”; in data set [19], 30 mg/kg. Besides, the “Ratio TD50/ED50” value in data set [3] was more than 24.1. The Time in data set [4] was determined as 8 h. Besides, the result in data set [5] and in [11] was inactive. Also, the TD50 (usually the dose at which the toxic effect under study appears in half of the subjects) at 1 min in data set [8] is more than 500 mg/kg.
Regarding `Cc1cccc(N2CCN(CCCN3C(=O)CC(c4ccccc4Cl)C3=O)CC2)c1` (stereo not given), in data set [20], the Activity was found to be 120 mg/kg.
Turning to `COc1ccccc1N1CCN(CCN2C(=O)CC(c3ccccc3C(F)(F)F)C2=O)CC1` (stereo not given), the Activity result was “Toxic” in data set [21], 300 mg/kg in [7], “Toxic” in [23] and “Non-toxic” in [16]. Further, the result in data set [22] and in [11] was inactive.
`O=C1CC(c2ccccc2C(F)(F)F)C(=O)N1CCCN1CCN(c2cccc(C(F)(F)F)c2)CC1` (stereo not given): in data set [24], the TD50 at 1 min turned out to be 360 mg/kg. Further, the Activity is 25% in data set [2]; 25% in [5]; “Non-toxic” in [6]; 300 mg/kg in data set [7]; “Non-toxic” in data set [12]; “Non-toxic” in data set [15]. Also, the Activity is 30 mg/kg in [27]; “Non-toxic” in data set [17]; 300 mg/kg in data set [28]; “Non-toxic” in data set [18]; 100 mg/kg in data set [19]. In addition, the ED50 in data set [25] was more than 350 mg/kg; in [30], 132 mg/kg. Moreover, the outcome in data set [9], in data set [13] and in data set [14] was inactive. Moreover, in data set [26], the “Ratio TD50/ED50” value is recorded as 2.72. Further, the Time in [29] is 2 h.
